Test results from patent publication US20230136301A1, “Corticosteriod Reduction in Treatment with Anti-CD38 Antibody” (Janssen Biotech, Inc., priority 2021, published 2023).
Several values for one entry are separate records, joined by “and”; a condition that tells them apart may be missing. Identical values can stand only once. Like-named read-outs stand apart in the source and are kept apart here.

What was measured:
patients with RRMM [1] = assay: PAVO Part 3: efficacy by IMWG response criteria; type: in vivo, human
Protocol: The primary endpoint was safety of pre- and post-dose steroid tapering. Key secondary endpoints included the overall response rate (ORR) and the rate of complete response (CR).
For the evaluation of efficacy, responses were assessed according to International Myeloma Working Group (IMWG) consensus recommendations (Durie et al., Leukemia 20(9):1467-73 (2006); Rajkumar et al., Blood 117(18):4691-95 (2011)). Disease evaluations were performed by a central laboratory.
In PAVO Part 3, no formal statistical hypothesis testing was performed. Data were summarized descriptively. Continuous variables were summarized using the number of observations, mean and standard deviation (SD), coefficient of variation, median and range as appropriate. Categorical variables were summarized using the number of observations and percentages as appropriate. Duration of response and PFS were estimated using Kaplan-Meier methods.

[2] = PAVO Part 3: serum daratumumab concentration, pre-dose Cycle 3 Day 1; type: in vivo, human; conditions: Cycle 3 Day 1 pre-dose
patients with RRMM [3] = assay: PAVO Part 3: infusion-related reactions (IRRs)
Protocol: Safety was assessed, with an emphasis on IRRs, while corticosteroids were reduced and discontinued.
The purpose of Part 3 was to evaluate the safety of daratumumab 1,800 mg SC delivery without predose and postdose corticosteroids after a 3-week, 2-week, and 1-week tapering schedule to assess the safety of corticosteroid-free SC daratumumab administration. […] In conjunction, patients also received a 3-week, 2-week, or 1-week steroid tapering schedule (FIG. 2). The 3-week tapering schedule (corticosteroid-free by Cycle 1 Day 22) consisted of methylprednisolone (MP) given orally (PO)/IV pre-dose (Cycle 1 Day 1, 100 mg; Cycle 1 Day 8, 60 mg; Cycle 1 Day 15, 30 mg) and PO post-dose (Cycle 1 Day 1, 20 mg for 2 days; Cycle 1 Day 8, 20 mg for 1 day; Cycle 1 Day 15, 20 mg for 1 day). The 2-week tapering schedule (corticosteroid-free by Cycle 1 Day 15) consisted of MP given PO/IV pre-dose (Cycle 1 Day 1, 100 mg; Cycle 1 Day 8, 60 mg) and PO post-dose (Cycle 1 Day 1, 20 mg for 2 days; Cycle 1 Day 8, 20 mg for 1 day). The 1-week tapering schedule (corticosteroid-free by Cycle 1 Day 8) consisted of dexamethasone 20 mg administered IV pre-dose on Cycle 1 Day 1, without post-dose administration.
The 3-week, 2-week and 1-week steroid tapering schedules were assessed by “3+3” design, followed by cohort expansion to approximately 15 patients (3-week and 2-week tapering cohorts) or 12 patients (1-week tapering cohort). The dose-limiting toxicity (DLT) assessment period in the 3-week, 2-week and 1-week tapering cohorts were Cycle 1 Day 1 through Cycle 2 Day 4, Cycle 1 Day 1 through Cycle 1 Day 25, and Cycle 1 Day 1 through Cycle 1 Day 11, respectively. […] Grade 3 or 4 IRRs only qualified as DLTs if they occurred during corticosteroid reduction or discontinuation (not during Cycle 1 Day 1). For the 3-week and 2-week groups, IRRs reported at Cycle 1 Day 1 were not considered DLTs, as corticosteroids had not yet been reduced or discontinued. Up to approximately 12 patients could be enrolled in the 1-week tapering schedule to assess safety, including IRRs.
Safety assessments included treatment-emergent adverse events (TEAEs), serious adverse events, and IRRs. All toxicities were graded according to the National Cancer Institute's Common Terminology for the Classification of Adverse Events (NCI-CTCAE) Version 4.03 (National Cancer Institute. Common Terminology Criteria for Adverse Events (CTCAE): Version 4.03.).

patients with RRMM [4] = conditions: PAVO Part 2; follow-up 14.2 months; cited from earlier work
patients with RRMM [5] = assay: PAVO Part 2: DARA SC safety and efficacy
[6] = system: patients with multiple myeloma; conditions: cited from earlier work

In the case of “DARA SC: 1,800 mg daratumumab co-formulated with 30,000 U rHuPH20 (2,000 U/mL, 15 mL), manual subcutaneous injection”, the “9-month duration of response rate” value (patients with RRMM [1]; 1-week taper) was 100%, the “Estimated 9-month PFS rate” value (patients with RRMM [1]; 1-week taper) was 46.7% and the “Median PFS” value (patients with RRMM [1]; 1-week taper) was 7.4 months. The “Median duration of response” value (patients with RRMM [1]; 1-week taper) was “not reached”, the “Median time to best response” value (patients with RRMM [1]; 1-week taper) was 1.0 months and the “Patients achieving ≥CR” value (patients with RRMM [1]; 1-week taper) was 1 (8.3%) n (%). The “Patients achieving ≥VGPR” value (patients with RRMM [1]; 1-week taper) was 2 (16.7%) n (%), the “Rate of very good partial response or better” value (patients with RRMM [1]; 1-week taper) was 16.7% and the “Overall response rate (ORR)” value (patients with RRMM [1]; 1-week taper, median follow-up 8.3 months) was 41.7%. For the same substance, the “9-month duration of response rate” value (patients with RRMM [1]; 2-week taper) was 83.3%, the “Estimated 9-month PFS rate” value (patients with RRMM [1]; 2-week taper) was 36.1% and the “Median PFS” value (patients with RRMM [1]; 2-week taper) was 4.7 months. For the same substance, the “Median duration of response” value (patients with RRMM [1]; 2-week taper) was 16.7 months, the “Median time to best response” value (patients with RRMM [1]; 2-week taper) was 1.9 months and the “Patients achieving ≥CR” value (patients with RRMM [1]; 2-week taper) was “no patient”. For the same substance, the “Patients achieving ≥VGPR” value (patients with RRMM [1]; 2-week taper) was 5 (33.3%) n (%), the “Rate of very good partial response or better” value (patients with RRMM [1]; 2-week taper) was 33.3% and the “Overall response rate (ORR)” value (patients with RRMM [1]; 2-week taper, median follow-up 11.1 months) was 40.0%. The “9-month duration of response rate” value (patients with RRMM [1]; 3-week taper) was 83.3%, the “Estimated 9-month PFS rate” value (patients with RRMM [1]; 3-week taper) was 40.0% and the “Median PFS” value (patients with RRMM [1]; 3-week taper) was 5.9 months. The “Median duration of response” value (patients with RRMM [1]; 3-week taper) was “not reached”, the “Median time to best response” value (patients with RRMM [1]; 3-week taper) was 1.5 months and the “Patients achieving ≥CR” value (patients with RRMM [1]; 3-week taper) was 1 (6.7%) n (%). For the same substance, the “Patients achieving ≥VGPR” value (patients with RRMM [1]; 3-week taper) was 3 (20.0%) n (%), the “Rate of very good partial response or better” value (patients with RRMM [1]; 3-week taper) was 20.0% and the “Overall response rate (ORR)” value (patients with RRMM [1]; 3-week taper, median follow-up 9.2 months) was 40.0%. For the same substance, the “Patients achieving ≥CR” value (patients with RRMM [1]; Total n=42) was 2 (4.8% (95% CI: 0.6%, 16.2%)) n (%), the “Patients achieving ≥VGPR” value (patients with RRMM [1]; Total n=42) was 10 (23.8% (95% CI: 12.1%, 39.5%)) n (%) and the “Overall response rate (ORR)” value (patients with RRMM [1]; Total n=42, median follow-up 8.3 months) was 40.5%. For the same substance, the “Estimated 9-month PFS rate” value (patients with RRMM [1]; all treated N=42) was 40.7%, the “Median PFS” value (patients with RRMM [1]; all treated N=42) was 5.9 months and the “Median time to best response” value (patients with RRMM [1]; responders n=17) was 1.1 months. The “Median time to first response” value (patients with RRMM [1]; responders n=17) was 1.0 months, the “Mean (SD) daratumumab serum concentration” value ([2]; 1-week taper) was 706 (270) μg/mL and 706 μg/mL and the “Mean (SD) daratumumab serum concentration” value ([2]; 2-week taper) was 731 (382) μg/mL and 731 μg/mL. The “Mean (SD) daratumumab serum concentration” value ([2]; 3-week taper) was 604 (280) μg/mL and 604 μg/mL, the “Mean (SD) daratumumab serum concentration” value ([2]; total PK-evaluable n=37) was 676 (314) μg/mL and the “Patients with an IRR” value (patients with RRMM [3]; 1-week taper) was 2 (16.7%) n (%). For the same substance, the “Patients with an IRR” value (patients with RRMM [3]; 2-week taper) was 3 (20.0%) n (%), the “Patients with an IRR” value (patients with RRMM [3]; 3-week taper) was 0 (0%) n (%) and the “Grade 4 IRRs” value (patients with RRMM [3]; Total n=42) was “no grade 4 IRRs reported”. For the same substance, the “IRR of increased blood pressure” value (patients with RRMM [3]; Total n=42) was 1 (2.4%) n (%), the “IRR of oropharyngeal pain” value (patients with RRMM [3]; Total n=42) was 1 (2.4%) n (%) and the IRR of tachycardia (patients with RRMM [3]; Total n=42) was 1 (2.4%) n (%). For the same substance, the “IRRs meeting the definition of a DLT” value (patients with RRMM [3]; Total n=42) was “None of the IRRs met the definition of a DLT”, the “Patients with an IRR” value (patients with RRMM [3]; Total n=42) was 5 (11.9%) n (%) and the “Number of grade 3 IRRs” value (patients with RRMM [3]; increased blood pressure, 2-week taper, resolved on day of onset) was 1. The “Median duration of response” value (patients with RRMM [4]) was 15.7 months, the ORR (patients with RRMM [4]) was 52% and the “Lymphopenia, TEAE of Grade >3” value (patients with RRMM [5]) was 20.0%. For the same substance, the “Serious TEAEs in SOC General disorders and administration site conditions” value (patients with RRMM [5]) was 8.0%, the “TEAEs in SOC General disorders and administration site conditions” value (patients with RRMM [5]) was 72.0% and the “Median PFS” value ([6]; COLUMBA primary analysis) was 5.6 months. The “Median duration of response” value ([6]; COLUMBA, follow-up 7.5 months) was “not reached” and the Overall response rate ([6]; COLUMBA, median follow-up 7.5 months) was 41%.
